Assay results taken from patent US20030175216A1, “Oral antimicrobial and anti-odor compositions” (Innoscent LTD., priority 2001, published 2003).

What was measured:
C. xerosis = assay: Agar plate zone of growth inhibition; type: cell-based, Corynebacterium xerosis; details: solvent alone (100%), no C9
Protocol: (§1) Five microliters of the higher alcohol solutions were placed on the surface of a rich (Brain-heart infusion) agar plate immediately after seeding with a mono-specific bacterial or yeast culture. The plates were incubated for 24-48 hours, and, following further microbial proliferation, the diameters of the zones of growth inhibition were measured (results expressed in centimeters). In a further set of experiments, the effect of solvent type on the antimicrobial activity of the C9 alcohol was investigated. […] These solutions were tested for antimicrobial activity towards three microorganisms (M. lysodeikticus, S. mutans and Corynebacterium xerosis) using the same assay as described above.

S. mutans = assay: Agar plate zone of growth inhibition; type: cell-based, Streptococcus mutans; details: for inhibition of S. mutans (summary): 1% in 100% ethanol
Protocol: as §1, with “The higher alcohols were tested for antimicrobial activity against Gram positive bacteria (Streptococcus mutans), Gram negative bacteria (Pseudomonas spp., Escherichia coli, […]) and the yeast Candida albicans. […] Five” for “Five”, “above. The relationship of the concentration of the C9 alcohol to its antimicrobial activity was also investigated. […] These solutions were tested in the assay described above for their ability to inhibit the growth of the bacteria M. lysodeikticus and S. mutans.” for “above.”

M. lysodeikticus = assay: Agar plate zone of growth inhibition; type: cell-based; details: solvent alone (100%), no C9
Protocol: as §1, with “above. The relationship of the concentration of the C9 alcohol to its antimicrobial activity was also investigated. […] These solutions were tested in the assay described above for their ability to inhibit the growth of the bacteria M. lysodeikticus and S. mutans.” for “above.”

E. faecalis = assay: Agar plate zone of growth inhibition; type: cell-based
Protocol: (§2) The higher alcohols were tested for antimicrobial activity against Gram positive bacteria (Streptococcus mutans), Gram negative bacteria (Pseudomonas spp., Escherichia coli, […]) and the yeast Candida albicans. […] Five microliters of the higher alcohol solutions were placed on the surface of a rich (Brain-heart infusion) agar plate immediately after seeding with a mono-specific bacterial or yeast culture. The plates were incubated for 24-48 hours, and, following further microbial proliferation, the diameters of the zones of growth inhibition were measured (results expressed in centimeters).

Pseudomonas aeruginosa = assay: Agar plate zone of growth inhibition; type: cell-based
Protocol: as §2

C. albicans = assay: Agar plate zone of growth inhibition; type: cell-based, Candida albicans
Protocol: as §2

[1] = tested on: odor formation in freshly-taken morning saliva; assay: Inhibition of in vitro odor formation by higher alcohols (saliva in decarboxylase medium); type: cell-based; details: for effect on in vitro odor formation (summary): 10-50 μl of 1% solution
Protocol: A series of test tubes were prepared, each containing 5 ml of decarboxylase medium (0.5% peptone, 0.3% yeast extract, 0.1% dextrose and 0.02% bromocresol purple). […] The tubes were incubated at 37° C. for three days. Following incubation, the odor was determined by a panel of odor judges, using the following semi-quantitative scale 0=no odor 1=very slight odor […] The higher alcohols tested were alkanols of chain length C8, C9, C10, C11, C12, C14, C16 and C18.

E. coli = assay: Agar plate zone of growth inhibition; type: cell-based, Escherichia coli; details: for inhibition of E. coli (summary): 1% in 100% ethanol
Protocol: as §2

[2] = tested on: bacteria and yeast tested; assay: Agar plate growth inhibition, summary statements over the test microorganisms; type: cell-based; details: Table VI microorganisms
Protocol: as §1, with “The higher alcohols were tested for antimicrobial activity against Gram positive bacteria (Streptococcus mutans), Gram negative bacteria (Pseudomonas spp., Escherichia coli, […]) and the yeast Candida albicans. […] Five” for “Five”, “above. The relationship of the concentration of the C9 alcohol to its antimicrobial activity was also investigated. […] These solutions were tested in the assay described above for their ability to inhibit the growth of the bacteria M. lysodeikticus and S. mutans.” for “above.”

[3] = 5 μl of 1% solution (C8-C12 in 70% ethanol, C14-C18 in 100% ethanol)
[4] = 10 μl of 1% solution, scale 0-5
[5] = 20 μl of 1% solution, scale 0-5
[6] = 30 μl of 1% solution, scale 0-5
[7] = 40 μl of 1% solution, scale 0-5
[8] = 50 μl of 1% solution (C8-C12 in 70% ethanol, C14-C18 in 100% ethanol) in 5 ml medium + 200 μl saliva, 3 days 37° C., scale 0 no odor to 5 extremely foul
[9] = 50 μl of 1% solution, scale 0-5
[10] = 5 μl of 0.1% solution in 70% ethanol
[11] = 70% ethanol alone, 100 μl, scale 0-5
[12] = 70% ethanol alone, 200 μl, scale 0-5

SMILES	Odor Score (Judge 1) [1, 4]	Odor Score (Judge 2) [1, 4]	Odor Score (Judge 1) [1, 5]	Odor Score (Judge 2) [1, 5]	Odor Score (Judge 1) [1, 6]	Odor Score (Judge 2) [1, 6]	Odor Score (Judge 1) [1, 7]	Odor Score (Judge 2) [1, 7]	Odor Score (Judge 1) [1, 8]	Odor Score (Judge 2) [1, 9]	diameter of zone of growth inhibition, Pseudomonas aeruginosa (Pseudomonas aeruginosa; [3])	diameter of zone of growth inhibition, E. coli (E. coli; [3]) [centimeters]	effect on microbial growth (summary) [2]	also measured
CC(C)O [2-propanol, reference compound]														diameter of zone of growth inhibition, C. xerosis (C. xerosis): 0.8 centimeters; diameter of zone of growth inhibition, S. mutans (S. mutans; solvent alone (100%), no C9): 0.9 centimeters; diameter of zone of growth inhibition, M. lysodeikticus (M. lysodeikticus): 1.1 centimeters
CCCCCCCCO [C8]	4	3	3	3	3	3	4	3	4	4	0.5 centimeters			diameter of zone of growth inhibition, E. faecalis (E. faecalis; [3]): + −; inhibition of the yeast C. albicans (summary) (C. albicans; opaque inhibition zone on the agar plate): only partial inhibition
CCCCCCCCCCO [C10, 1-decanol]	4	4	0	0	0	0	0	0	0	0	0.8 centimeters	0.7	inhibit microbial growth	diameter of zone of growth inhibition, E. faecalis (E. faecalis; [10]): 0.9 centimeters; diameter of zone of growth inhibition, Pseudomonas aeruginosa (Pseudomonas aeruginosa; [10]): 0.8 centimeters; diameter of zone of growth inhibition, C. albicans (C. albicans; [10]): 0.7 centimeters; diameter of zone of growth inhibition, C. albicans (C. albicans; [3]): 0.8 centimeters; diameter of zone of growth inhibition, E. coli (E. coli; [10]): 0.8 centimeters; effect on in vitro odor formation (summary) [1]: inhibition of odor formation
CCCCCCCCCCCO [C11, 1-undecanol]	5	5	0	0.5	0	0	0	0	0	0	0.7 centimeters	0.7	inhibit microbial growth	diameter of zone of growth inhibition, E. faecalis (E. faecalis; [10]): 1.0 centimeters; diameter of zone of growth inhibition, Pseudomonas aeruginosa (Pseudomonas aeruginosa; [10]): 0.4 centimeters; diameter of zone of growth inhibition, C. albicans (C. albicans; [10]): 0.7 centimeters; diameter of zone of growth inhibition, C. albicans (C. albicans; [3]): 0.8 centimeters; diameter of zone of growth inhibition, E. coli (E. coli; [10]): 0.7 centimeters; effect on in vitro odor formation (summary) [1]: inhibition of odor formation
CCCCCCCCCCCCCCCC[n+]1ccccc1 [CPC, cetylpyridinium chloride, reference compound]	2	2.5	0	0										Odor Score (Judge 1) ([1]; 5 μl of 1% solution, scale 0-5): 4; Odor Score (Judge 2) ([1]; 5 μl of 1% solution, scale 0-5): 4
CCO [Ethanol, ethanol, reference compound]														diameter of zone of growth inhibition, Pseudomonas aeruginosa (Pseudomonas aeruginosa; 5 μl of 70% Ethanol alone): + −; diameter of zone of growth inhibition, E. coli (E. coli; 5 μl of 100% Ethanol alone): 1.0 centimeters; Odor Score (Judge 1) [1, 11]: 5; Odor Score (Judge 2) [1, 11]: 4.5; Odor Score (Judge 1) [1, 12]: 4; Odor Score (Judge 2) [1, 12]: 4.5; diameter of zone of growth inhibition, S. mutans (S. mutans; 5 μl of 100% Ethanol alone): + −
OCC(O)CO [glycerol, reference compound]														diameter of zone of growth inhibition, C. xerosis (C. xerosis): 0.2 centimeters
CO [methanol, reference compound]														diameter of zone of growth inhibition, C. xerosis (C. xerosis): 0.7 centimeters

Now from value to compound, other results behind:

Odor Score (Judge 1) [1, 4]	Odor Score (Judge 2) [1, 4]	Odor Score (Judge 1) [1, 5]	Odor Score (Judge 2) [1, 5]	Odor Score (Judge 1) [1, 6]	Odor Score (Judge 2) [1, 6]	Odor Score (Judge 1) [1, 7]	Odor Score (Judge 2) [1, 7]	Odor Score (Judge 1) [1, 8]	Odor Score (Judge 2) [1, 9]	SMILES	diameter of zone of growth inhibition, Pseudomonas aeruginosa (Pseudomonas aeruginosa; [3])	diameter of zone of growth inhibition, E. coli (E. coli; [3]) [centimeters]	effect on microbial growth (summary) [2]	also measured
5	5	4	4	3	3	2	3	2	3.5	CCCCCCCCCCCCO [C12]	+ −		inhibit microbial growth	diameter of zone of growth inhibition, E. faecalis (E. faecalis; [3]): 0.7 centimeters; diameter of zone of growth inhibition, Pseudomonas aeruginosa (Pseudomonas aeruginosa; [10]): + −; diameter of zone of growth inhibition, C. albicans (C. albicans; [10]): 0.6 centimeters; diameter of zone of growth inhibition, E. coli (E. coli; [10]): 0.6 centimeters
5	5	5	5	5	5	5	5	4	4	CCCCCCCCCCCCCCO [C14]		0.9	inhibit microbial growth	diameter of zone of growth inhibition, S. mutans (S. mutans; [3]): 1.0 centimeters
5	5	5	5	5	5	5	5	4	4	CCCCCCCCCCCCCCCCO [C16]		0.7		inhibition of E. coli (summary) (E. coli): moderate inhibition; inhibition of S. mutans (summary) (S. mutans): not of S. mutans; diameter of zone of growth inhibition, S. mutans (S. mutans; [3]): + −
5	5	5	5	5	5	4	4	3.5	4	CCCCCCCCCCCCCCCCCCO [C18]		0.8		inhibition of E. coli (summary) (E. coli): moderate inhibition; inhibition of S. mutans (summary) (S. mutans): not of S. mutans; diameter of zone of growth inhibition, S. mutans (S. mutans; [3]): + −
2	1	0	0	0	0	0	0			N=C(NCCCCCCNC(=N)NC(=N)Nc1ccc(Cl)cc1)NC(=N)Nc1ccc(Cl)cc1.O=C(O)[C@H](O)[C@@H](O)[C@H](O)[C@H](O)CO.O=C(O)[C@H](O)[C@@H](O)[C@H](O)[C@H](O)CO [CHX, chlorhexidine digluconate, reference compound]				Odor Score (Judge 1) ([1]; 5 μl of 1% solution, scale 0-5): 4; Odor Score (Judge 2) ([1]; 5 μl of 1% solution, scale 0-5): 4.5
